Experimental data published in PMC4672112, “Purification, Characterization of L-Methioninase from Candida tropicalis, and Its Application as an Anticancer” (Biotechnology Research International, 2015).

System: T1, L-methioninase
T1 construct: native, intracellular, purified from C. tropicalis cells (heat treatment, DEAE-cellulose, Sephadex); 46 kDa by SDS-PAGE; PLP enzyme
Assay: DTNB methanethiol assay, […] nm; Lineweaver-Burk plot
Assay type: biochemical, Candida tropicalis
Conditions: optimum assay conditions (pH 6.5, 45 C, 10 min), PLP; substrate range printed as 1 to 40 uM, which conflicts with the unit of Km; read-out: apparent Km

Compound: CSCC[C@H](N)C(=O)O [L-methionine]
- Km: 500 µM
